The values below come from patent publication US20250289804A1, “SUBSTITUTED INDOLE COMPOUNDS AND METHODS OF USE THEREOF” (NOVARTIS PHARMA AG, priority 2021, published 2025).

Molecules are shown by their SMILES. Where two headings read alike, the source gives them in different places.

For one assay, the system named is C3G patients. To be noted: after 12 weeks of treatment; cited from earlier work.
For assay [1], the system named is MAC formation in normal human serum. The assay can be described thus: Human serum MAC formation assay (zymosan-coated plates, 50% normal human serum). To be noted: 50% normal human serum with EGTA, 37° C. 30 minutes. The gist of the method: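 Compounds preincubated 15 min at RT with 50% normal human serum in gelatin buffer plus 20 mM EGTA, then complement activated 30 min at 37 °C on zymosan-coated plates. C9 neoepitope ELISA, fluorogenic readout. Percent inhibition vs EDTA-serum baseline and EGTA-serum maximum; IC50 from 4-parameter fit of 10-point curves.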

The next assay has as its target human C3bBb (Homo sapiens (Human), UniProt P00751). Kind of assay: Human C3bBb enzyme assay (C3a generation from C3, ELISA). Format: biochemical. Particulars: read-out: Human C3b:Bb IC50 Avg. The essentials: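 C3bBb was preformed from human C3b, CFB and CFD at 1 μM each (30 min, RT) in PBS pH 7.4 with 100 μM NiCl2 and 0.05% CHAPS. Then 3 nM complex with 1 μM human C3 was incubated with compound for 1 h at RT. C3a was quantified by ELISA against a standard curve, and IC50 came from a 10-point 4-parameter fit.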
For orientation: In an ELISA, binding on a coated surface is turned into a signal by an enzyme label.

Where [2] appears, read: 3 nM C3bBb complex, 1 μM human C3, 1 hour room temperature.
[3] abbreviates: starred values: assay conducted with 1 nM C3b:Bb enzyme.

Chain of human C3bBb (P00751 260-764): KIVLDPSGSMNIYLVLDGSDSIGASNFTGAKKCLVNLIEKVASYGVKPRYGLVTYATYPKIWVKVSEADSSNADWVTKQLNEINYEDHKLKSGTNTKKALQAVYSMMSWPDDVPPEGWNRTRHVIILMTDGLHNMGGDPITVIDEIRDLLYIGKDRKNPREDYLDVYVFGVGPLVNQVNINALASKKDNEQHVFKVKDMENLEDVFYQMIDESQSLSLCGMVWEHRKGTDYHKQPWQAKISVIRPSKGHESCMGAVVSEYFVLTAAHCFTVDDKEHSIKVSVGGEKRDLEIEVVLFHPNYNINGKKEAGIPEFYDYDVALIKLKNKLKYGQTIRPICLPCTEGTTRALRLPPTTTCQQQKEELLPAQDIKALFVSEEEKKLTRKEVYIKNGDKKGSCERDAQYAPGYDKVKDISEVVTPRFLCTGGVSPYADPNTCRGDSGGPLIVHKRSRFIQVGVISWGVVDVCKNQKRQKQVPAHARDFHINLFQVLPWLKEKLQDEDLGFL
Chain of human C3bBb (P01024 23-667 partner): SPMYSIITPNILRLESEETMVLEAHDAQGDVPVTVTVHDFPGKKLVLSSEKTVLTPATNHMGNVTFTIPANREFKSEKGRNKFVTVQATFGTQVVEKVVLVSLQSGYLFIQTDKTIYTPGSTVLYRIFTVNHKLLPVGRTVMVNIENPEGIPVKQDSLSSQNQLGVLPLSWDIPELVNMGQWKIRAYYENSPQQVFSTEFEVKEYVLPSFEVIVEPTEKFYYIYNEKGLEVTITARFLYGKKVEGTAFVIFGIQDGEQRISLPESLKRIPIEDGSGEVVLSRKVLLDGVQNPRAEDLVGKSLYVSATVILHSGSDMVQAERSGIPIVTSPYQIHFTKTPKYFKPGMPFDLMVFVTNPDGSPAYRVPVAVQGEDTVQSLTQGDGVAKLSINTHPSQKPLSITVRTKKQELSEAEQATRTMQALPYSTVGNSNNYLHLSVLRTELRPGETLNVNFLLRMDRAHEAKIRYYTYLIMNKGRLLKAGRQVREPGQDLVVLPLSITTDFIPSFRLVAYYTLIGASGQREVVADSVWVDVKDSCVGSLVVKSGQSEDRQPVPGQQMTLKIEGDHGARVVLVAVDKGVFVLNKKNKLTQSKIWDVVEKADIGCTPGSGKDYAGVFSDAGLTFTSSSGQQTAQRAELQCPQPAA
Chain of human C3bBb (P01024 749-1663 partner): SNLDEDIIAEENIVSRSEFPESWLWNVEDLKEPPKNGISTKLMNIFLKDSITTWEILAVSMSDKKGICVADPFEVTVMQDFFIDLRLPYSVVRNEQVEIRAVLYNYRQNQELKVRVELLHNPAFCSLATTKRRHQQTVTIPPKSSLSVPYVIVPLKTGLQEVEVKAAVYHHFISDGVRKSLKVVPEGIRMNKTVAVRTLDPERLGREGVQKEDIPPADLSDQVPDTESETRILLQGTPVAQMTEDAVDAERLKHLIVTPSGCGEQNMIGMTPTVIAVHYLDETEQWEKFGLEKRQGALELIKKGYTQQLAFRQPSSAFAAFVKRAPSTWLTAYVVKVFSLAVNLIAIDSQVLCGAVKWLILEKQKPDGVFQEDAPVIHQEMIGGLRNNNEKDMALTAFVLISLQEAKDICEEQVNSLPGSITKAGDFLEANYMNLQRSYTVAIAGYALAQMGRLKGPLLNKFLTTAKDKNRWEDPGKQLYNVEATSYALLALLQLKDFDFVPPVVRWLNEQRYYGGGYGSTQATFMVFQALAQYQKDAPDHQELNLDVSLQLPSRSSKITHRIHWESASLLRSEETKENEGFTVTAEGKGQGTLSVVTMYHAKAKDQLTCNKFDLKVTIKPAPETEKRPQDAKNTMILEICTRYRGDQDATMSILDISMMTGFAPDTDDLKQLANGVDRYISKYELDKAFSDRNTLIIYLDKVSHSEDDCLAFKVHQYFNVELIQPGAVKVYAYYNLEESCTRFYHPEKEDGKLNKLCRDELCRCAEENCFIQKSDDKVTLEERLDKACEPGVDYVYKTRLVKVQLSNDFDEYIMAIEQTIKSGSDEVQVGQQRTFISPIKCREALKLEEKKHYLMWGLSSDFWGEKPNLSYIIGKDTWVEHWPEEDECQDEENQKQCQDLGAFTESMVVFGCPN

For the compound `CCO[C@H]1CCN(Cc2c(OC)cc(C)c3[nH]ccc23)[C@H](c2ccc(C(=O)O)cc2)C1` [iptacopan], in the assay with C3G patients, the “efficacy (proteinuria)” value is recorded as “reduced proteinuria”.

Take `COc1cc(C)c2[nH]ccc2c1CN1CC[C@H](NS(N)(=O)=O)C[C@H]1c1ccc(C(=O)O)cc1` (racemic) [Example 16, (±)-trans-4-(1-((5-methoxy-7-methyl-1H-indol-4-yl)methyl)-4-(sulfamoylamino)piperidin-2-yl)benzoic acid]: the IC50 is 0.3 to 0.5 µM in assay [1] and more than 0.1 µM at human C3bBb (setting [2]).

For `COc1cc(C)c2[nH]ccc2c1CN1CC[C@H](OCC(F)F)C[C@H]1c1ccc(C(=O)O)cc1` [Example 83, 4-((2S,4S)-4-(2,2-difluoroethoxy)-1-((5-methoxy-7-methyl-1H-indol-4-yl)methyl)piperidin-2-yl)benzoic acid], the IC50 in assay [1] was 0.1 to 0.2 µM; on human C3bBb (setting [3]) it was less than 0.01 µM.

`Cc1cc(C2CC2)c(CN2CC[C@H](NC3CC(F)(F)C3)C[C@H]2c2ccc(C(=O)O)cc2)c2cc[nH]c12` [Example 25, 4-((2S,4S)-1-((5-cyclopropyl-7-methyl-1H-indol-4-yl)methyl)-4-((3,3-difluorocyclobutyl)amino)piperidin-2-yl)benzoic acid]: the concentration for half-maximal inhibition (IC50) is less than 0.1 µM in assay [1] and less than 0.01 µM at human C3bBb (setting [3]).

For `COc1cc(C)c2[nH]ccc2c1CN1CC[C@H](N2CC(C#N)C2)C[C@H]1c1ccc(C(=O)O)cc1` [Example 73, 4-((2S,4S)-4-(3-cyanoazetidin-1-yl)-1-((5-methoxy-7-methyl-1H-indol-4-yl)methyl)piperidin-2-yl)benzoic acid], the results for the 50% inhibitory concentration (IC50) (in assay [1]; at human C3bBb (setting [3])) were 0.1 to 0.2 µM and less than 0.01 µM, respectively.

As for `COc1cc(C)c2[nH]ccc2c1CN1CC[C@]2(CCC(F)(F)C2)C[C@H]1c1ccc(C(=O)O)cc1` (single isomer, unassigned) [Example 36, 4-(5R,7S)-(2,2-difluoro-8-((5-methoxy-7-methyl-1H-indol-4-yl)methyl)-8-azaspiro[4.5]decan-7-yl)benzoic acid or 4-(5S,7S)-(2,2-difluoro-8-((5-methoxy-7-methyl-1H-indol-4-yl)methyl)-8-azaspiro[4.5]decan-7-yl)benzoic acid], the IC50 in assay [1] is less than 0.1 µM; on human C3bBb (setting [3]), less than 0.01 µM.

For `COc1cc(C)c2[nH]ccc2c1CN1CC[C@H](OC2COC2)C[C@H]1c1ccc(C(=O)O)cc1` [Example 82, 4-((2S,4S)-1-((5-methoxy-7-methyl-1H-indol-4-yl)methyl)-4-(oxetan-3-yloxy)piperidin-2-yl)benzoic acid], the results for the IC50 (in assay [1]; on human C3bBb (setting [3])) were 0.2 to 0.3 µM and 0.01 to 0.025 µM, respectively.

Turning to `COc1cc(C)c2[nH]cc(Cl)c2c1CN1CCC2(C[C@H]1c1ccc(C(=O)O)cc1)CC(F)(F)C2` [Example 53, (S)-4-(7-((3-chloro-5-methoxy-7-methyl-1H-indol-4-yl)methyl)-2,2-difluoro-7-azaspiro[3.5]nonan-6-yl)benzoic acid], the IC50 in assay [1] was less than 0.1 µM; on human C3bBb (setting [3]), less than 0.01 µM.

As for `COc1cc(C)c2[nH]ccc2c1CN1CC[C@H](n2cc(Br)cn2)C[C@H]1c1ccc(C(=O)O)cc1` (racemic) [Example 2, (±)-trans-4-(4-(4-bromo-1H-pyrazol-1-yl)-1-((5-methoxy-7-methyl-1H-indol-4-yl)methyl)piperidin-2-yl)benzoic acid], the IC50 in assay [1] is 0.3 to 0.5 µM; at human C3bBb (setting [2]), 0.05 to 0.1 µM.

Consider `COc1cc(C)c2[nH]ccc2c1CN1CC[C@H](N2CC(C(F)F)C2)C[C@H]1c1ccc(C(=O)O)cc1` [Example 74, 4-((2S,4S)-4-(3-(difluoromethyl)azetidin-1-yl)-1-((5-methoxy-7-methyl-1H-indol-4-yl)methyl)piperidin-2-yl)benzoic acid], for which the figures for the IC50 (in assay [1]; on human C3bBb (setting [3])) were 0.1 to 0.2 µM and less than 0.01 µM, respectively.

For the compound `COc1cc(C)c2[nH]ccc2c1CN1CC[C@H](NC2COC2)C[C@H]1c1ccc(C(=O)O)cc1` (racemic) [Example 17, (+)-trans-4-(1-((5-methoxy-7-methyl-1H-indol-4-yl)methyl)-4-(oxetan-3-ylamino)piperidin-2-yl)benzoic acid], the results for the half-inhibitory concentration (IC50) (in assay [1]; at human C3bBb (setting [2])) were 0.1 to 0.2 µM and 0.01 to 0.025 µM, respectively.

With `COc1cc(C)c2[nH]ccc2c1CN1CC2(CCC2)[C@H]1c1ccc(C(=O)O)cc1` [Example 40, (R)-4-(2-((5-methoxy-7-methyl-1H-indol-4-yl)methyl)-2-azaspiro[3.3]heptan-1-yl)benzoic acid], the values for the IC50 (in assay [1]; on human C3bBb (setting [2])) were 0.3 to 0.5 µM and more than 0.1 µM, respectively.

Regarding `COc1cc(C)c2[nH]ccc2c1CN1CC[C@]2(C[C@H]1c1ccc(C(=O)O)cc1)C[C@@H](C(F)F)C2` (single isomer, unassigned) [Example 46, 4-((2R,4s,6S)-2-(difluoromethyl)-7-((5-methoxy-7-methyl-1H-indol-4-yl)methyl)-7-azaspiro[3.5]nonan-6-yl)benzoic acid or 4-((2S,4r,6S)-2-(difluoromethyl)-7-((5-methoxy-7-methyl-1H-indol-4-yl)methyl)-7-azaspiro[3.5]nonan-6-yl)benzoic acid], the concentration for half-maximal inhibition (IC50) in assay [1] was 0.1 to 0.2 µM; on human C3bBb (setting [3]), less than 0.01 µM.

`COc1cc(C)c2[nH]ccc2c1CN1CC[C@H](n2cc(S(C)(=O)=O)cn2)C[C@H]1c1ccc(C(=O)O)cc1` (racemic) [Example 11, (±)-trans-4-(1-((5-methoxy-7-methyl-1H-indol-4-yl)methyl)-4-(4-methylsulfonyl)-1H-pyrazol-1-yl)piperidin-2-yl)benzoic acid]: the IC50 is more than 0.5 µM in assay [1] and more than 0.1 µM at human C3bBb (setting [2]).

As for `COc1cc(C)c2[nH]ccc2c1CN1CC[C@@]2(C[C@H]1c1ccc(C(=O)O)cc1)CC2(F)F` (stereo in doubt) [Example 30, 4-((3R,5S)- or ((3S,5S)-1,1-difluoro-6-((5-methoxy-7-methyl-1H-indol-4-yl)methyl)-6-azaspiro[2.5]octan-5-yl)benzoic acid], the values for the IC50 (in assay [1]; on human C3bBb (setting [3])) were 0.1 to 0.2 µM and less than 0.01 µM, respectively.

One may read the IC50 as the midpoint of a concentration-inhibition curve.
